Starred links: 1 amine or outer side, 2 acyl side, 3 side chain; linkers in the order of their positions; H or OH if unused. Positions of bridges follow the written chain, without caps; N, C: chain ends. Non-standard residues stand in square brackets, D forms with d. Residues, ends and D or L forms follow the SMILES beside them. Chains are numbered I, II in the order given. Actinocin(9to1) = Cc1c2oc3c(C)ccc(C(=O)[*:1])c3nc-2c(C(=O)[*:2])c(N)c1=O; NMeV = CN[C@H](C(=O)O)C(C)C; Sar = CNCC(=O)O
Target: T1, HCV NS3 helicase NS3h_1b(con1) (Hepatitis C virus genotype 1b, UniProt Q9WMX2)
T1 construct: truncated C-terminally His-tagged NS3 proteins lacking the N-terminal protease, called NS3h; His-tag (C); made in house
Experiment: MBHA screen of NCI mechanistic set library at 20 μM (percent inhibition, compound interference)
Format: biochemical
Conditions: compounds at 20 μM; for Inh. (%) (Inhibition): calculated from Equation 1
Protocol: All molecular beacon-based helicase assays (MBHAs) were performed according to known methods (Belon & Frick (2008) supra; Belon & Frick (2009) supra). […] In each flat, black 384-well plate, 56 compounds were tested, in triplicate, along with three negative controls (DMSO only), three positive controls (500 nM dT20), and two wells with no enzyme. Fluorescence was read before ATP (F0) addition and 30 minutes after ATP was added to 1 mM (F30) using a Tecan Infinite M200 fluorescence microplate reader with excitation and emission wavelengths set to 643 and 670 nm, respectively. Percent inhibition was calculated with equation 1, and compound interference in the MBHA was calculated with equation 2.
In Equations 1 and 2, Fc0 is the fluorescence of the reactions containing the test compound before adding ATP, Fc30 is the fluorescence of the test compound reaction 30 minutes after adding ATP. F(−)0 is the average of three DMSO-only negative control reactions before adding ATP and F(−)30 is the average of three DMSO-only reactions 30 minutes after adding ATP.
To identify HCV helicase inhibitors, the MBHA was first used to screen the National Cancer Institute Developmental Therapeutics Program's mechanistic set library. In total, 827 compounds (at 20 μM) were screened using a MBHA with a DNA substrate (Table 1). Compounds were ranked by their ability to inhibit HCV helicase-catalyzed DNA unwinding as calculated from Equation 1.
Compound interference in the MBHA was evaluated by comparing the fluorescence of reactions containing each compound to the fluorescence of DMSO-only negative controls before ATP was added.

[1] = MBHA with DNA substrate, assay interference calculated with Equation 2
[2] = assay interference calculated with Equation 2 (fluorescence vs DMSO-only controls before ATP)

T1 sequence (Q9WMX2 1192-1657): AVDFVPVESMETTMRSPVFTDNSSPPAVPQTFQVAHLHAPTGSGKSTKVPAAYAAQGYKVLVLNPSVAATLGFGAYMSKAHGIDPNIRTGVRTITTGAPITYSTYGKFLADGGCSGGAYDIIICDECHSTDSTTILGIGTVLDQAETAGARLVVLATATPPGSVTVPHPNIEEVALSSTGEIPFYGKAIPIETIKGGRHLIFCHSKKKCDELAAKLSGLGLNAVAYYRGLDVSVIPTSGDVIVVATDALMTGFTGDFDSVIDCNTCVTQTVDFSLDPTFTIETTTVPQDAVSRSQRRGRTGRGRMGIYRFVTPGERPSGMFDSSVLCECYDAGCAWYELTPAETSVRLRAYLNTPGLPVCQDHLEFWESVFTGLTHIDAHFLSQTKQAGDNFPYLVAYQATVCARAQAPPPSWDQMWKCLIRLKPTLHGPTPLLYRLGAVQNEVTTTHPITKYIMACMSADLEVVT

| SMILES | Int.* (Ratio) (Interference) [1] | Inh. (%) (Inhibition) (MBHA with DNA substrate) | Inh. (%) (Inhibition) (MBHA with a DNA substrate) | Int.* (Ratio) (Interference) [2] |
| --- | --- | --- | --- | --- |
| O=C(O)c1ccc(NC(c2ccccc2)c2ccc3cccnc3c2O)cc1 (centres unmarked) [Compound 1011] | 0.87 | 3.7 |  |  |
| NC1(C(=O)O)CCCC1 [Compound 1026] |  |  | 9.0 | 0.90 |
| CC(C)(Br)C(=O)C(Br)Br [Compound 1027] |  |  | 7.0 | 0.91 |
| c1coc(CNc2ncnc3[nH]ncc23)c1 [Compound 1620] |  |  | −3.0 | 1.06 |
| CN(C)C(=S)SSC(=S)N(C)C [Compound 1771] | 0.98 | 0.2 |  |  |
| C1CCNCC1.S=C(S)N1CCCCC1 [Compound 1906] | 1.17 | −1.6 |  |  |
| Cc1cc(O)c(C(C)C)cc1C1(c2cc(C(C)C)c(O)cc2C)OC(=O)c2ccccc21 [Compound 2186] |  |  | −22.0 | 1.01 |
| CC(C)C1(Cl)CCC2C3(C)CCCC(C)(C(=O)O)C3CC(Cl)C2(Cl)C1Cl (centres unmarked) [Compound 2979] | 1.00 | −12.5 |  |  |
| Cc1c2oc3c(C)ccc(C(=O)N[C@@H]4C(=O)N[C@H](C(C)C)C(=O)N5CCC[C@H]5C(=O)N(C)CC(=O)N(C)[C@@H](C(C)C)C(=O)O[C@@H]4C)c3nc-2c(C(=O)N[C@@H]2C(=O)N[C@H](C(C)C)C(=O)N3CCC[C@H]3C(=O)N(C)CC(=O)N(C)[C@@H](C(C)C)C(=O)O[C@@H]2C)c(N)c1=O [Compound 3053] (I: T[dV]P[Sar][NMeV] / II: T[dV]P[Sar][NMeV]; ester I:1-I:C, II:1-II:C; linker I:N-II:N via Actinocin(9to1)) | 0.55 | 67.5 |  |  |
| O=Nc1ccc(O)c2ncccc12 [Compound 3852] | 1.01 | −15.7 |  |  |
| c1ccc(-c2cccc(-c3ccccn3)n2)nc1 [Compound 3905] | 0.92 | 5.7 |  |  |
| C1COCCN1.S=C(S)N1CCOCC1 [Compound 4114] |  |  | 7.2 | 1.15 |
| CC1=CC(=O)c2ccccc2C1=O [Compound 4170] |  |  | −27.3 | 1.09 |
| Cc1ccc2ccc3ccc(C)nc3c2n1 [Compound 4280] | 1.01 | −9.2 |  |  |
| COC1CC(OC2CCC3(C=O)C4CCC5(C)C(C6=CC(=O)OC6)CCC5(O)C4CCC3(O)C2)OC(C)C1OC1OC(CO)C(O)C(O)C1O (centres unmarked) [Compound 4320] | 0.95 | −12.6 |  |  |
| C=C(C)[C@@H]1CC[C@]2(CO)CC[C@]3(C)[C@H](CC[C@@H]4[C@@]5(C)CC[C@H](O)C(C)(C)[C@@H]5CC[C@]43C)[C@@H]12 [Compound 4644] | 1.32 | −13.9 |  |  |
| Nc1nncs1 [Compound 4728] | 1.07 | 5.9 |  |  |
| O=[N+]([O-])c1ccc(N=Nc2c(O)[nH]c3ccccc23)c([N+](=O)[O-])c1 [Compound 4810] | 1.01 | −15.4 |  |  |
| CCN(CC)C(=S)S [Compound 4857] | 1.07 | −8.0 |  |  |
| COc1ccc(O)cc1 [Compound 4960] |  |  | −4.5 | 0.90 |
| CO[C@H]1[C@@H](O)[C@@H](C)O[C@H](O[C@H]2[C@H](Oc3cccc4c(O)c5c(=O)oc6ccc(C)c7c(=O)oc(c34)c5c67)O[C@H](C)[C@H](O)[C@@H]2O)[C@@H]1O [Compound 5159] | 1.03 | 38.6 |  |  |
| Nc1nc(N)c(N=Nc2ccccc2)c(=O)[nH]1 [Compound 5200] |  |  | 7.0 | 1.02 |

| SMILES | Int.* (Ratio) (Interference) [1] | Inh. (%) (Inhibition) (MBHA with DNA substrate) | Inh. (%) (Inhibition) (MBHA with a DNA substrate) | Int.* (Ratio) (Interference) [2] |
| --- | --- | --- | --- | --- |
| Nc1ccccc1N [Compound 5354] |  |  | 10.6 | 0.97 |
| O=C1c2cccc(O)c2C(=O)c2c(O)cccc21 [Compound 7210] | 0.97 | −0.5 |  |  |
| Cc1nc(N)nc(N)c1-c1ccc(Cl)c(Cl)c1 [Compound 7364] | 0.86 | 20.2 |  |  |
| CC1OC(O[C@@H]2C=C3CC[C@@H]4[C@H](CC[C@]5(C)[C@@H](c6ccc(=O)oc6)CC[C@]45O)[C@@]3(C)CC2)C(O)C(O)C1O (some centres unmarked) [Compound 7521] | 0.94 | 5.5 |  |  |
| COC1CC(O[C@H]2CC[C@]3(C=O)[C@H]4CC[C@]5(C)[C@@H](C6=CC(=O)OC6)CC[C@]5(O)[C@@H]4CC[C@]3(O)C2)OC(C)C1O (some centres unmarked) [Compound 7522] |  |  | −24.0 | 0.97 |
| COC1CC(OC2CCC3(C=O)C4CCC5(C)C(C6=CC(=O)OC6)CCC5(O)C4CCC3(O)C2)OC(C)C1OC1OC(COC2OC(CO)C(O)C(O)C2O)C(O)C(O)C1O (centres unmarked) [Compound 7530] |  |  | −19.7 | 0.98 |
| CC(=O)O[C@H]1C[C@H](O[C@H]2[C@@H](O)C[C@H](O[C@H]3[C@@H](O)C[C@H](O[C@H]4CC[C@@]5(C)[C@H](CC[C@@H]6[C@@H]5CC[C@]5(C)[C@@H](C7=CC(=O)OC7)CC[C@]65O)C4)O[C@@H]3C)O[C@@H]2C)OC(C)[C@H]1O[C@@H]1O[C@H](CO)[C@@H](O)[C@H](O)[C@H]1O (some centres unmarked) [Compound 7532] |  |  | −3.4 | 0.89 |
| Nc1ccc(N)c2c1C(=O)c1ccccc1C2=O [Compound 7833] | 1.07 | −18.7 |  |  |
| C1CN1c1nc(N2CC2)nc(N2CC2)n1 [Compound 9706] | 0.98 | −10.9 |  |  |
| CCCCCCCC/C=C\CCCCCCCC(=O)O [Compound 9856] | 0.84 | 12.6 |  |  |
| COc1ccc2nc(C)cc(NCCCCCCCCCNc3cc(C)nc4ccc(OC)cc34)c2c1 [Compound 10010] | 0.23 | 56.7 |  |  |
| O=C1c2ccccc2C(=O)c2c(O)c(O)cc(O)c21 [Compound 10447] | 1.06 | 5.6 |  |  |
| CC(C)=CC1C(C(=O)O)C1(C)C (centres unmarked) [Compound 11779] | 0.89 | 16.8 |  |  |
| CC1=C(O)c2ccccc2C(=O)C1=O [Compound 11897] | 1.05 | 2.5 |  |  |
| CC(C)=CCC1=C(O)c2ccccc2C(=O)C1=O [Compound 11905] |  |  | −4.3 | 0.80 |
| COc1cccc2c1cc([N+](=O)[O-])c1c(C(=O)O)cc3c(c12)OCO3 [Compound 11926] | 1.14 | −12.8 |  |  |
| CN(C)CCOc1ccc(I)cc1Cc1ccccc1.Cl [Compound 11930] | 1.10 | −18.9 |  |  |
| O=c1c(Br)c(-c2ccccc2)[nH]c2ccccc12 [Compound 12825] | 0.95 | 4.4 |  |  |
| Nc1ccc2c(c1)S(=O)(=O)c1cc(N)ccc1-2 [Compound 13966] | 1.13 | −14.1 |  |  |
| Cc1cc2cc3cc(C)c(N)cc3nc2cc1N [Compound 13973] | 0.28 | 31.8 |  |  |
| CCN(CC)CCCC(C)Nc1c2ccc(Cl)cc2nc2ccc(OC)cc12.Cl.Cl (centres unmarked) [Compound 14229] | 1.08 | 55.1 |  |  |
